Reference: PMC2375326, “In vitro evaluation of amino acid prodrugs of novel antitumour 2-(4-amino-3-methylphenyl)benzothiazoles” (British Journal of Cancer, 2002)

How the values were obtained:
MCF-7 cells = assay: Prodrug uptake, conversion and metabolism (HPLC of media), MCF-7; type: in vitro ADME, human; conditions: prodrug 10 μM, days 1–7
Protocol: MCF-7 cells were seeded into 25 ml flasks at appropriate densities (5×10^5–5×10^6). After 24 h, medium was changed and drug introduced at a final concentration of 10 μM. Media samples, collected from flasks at time zero and 24 h intervals, were mixed with 1.5-fold volumes of high performance liquid chromatography (HPLC) grade acetonitrile to precipitate protein and centrifuged at 14 000 g for 5 min. Supernatants (600 μl) were mixed with 400 μl 10% acetonitrile in 1% acetic acid and analysed by HPLC. The system consisted of Beckman System Gold equipment (solvent module 128, autosampler 507e and multiple wavelength UV detector 168). Separation of parent compounds and biotransformation products was effected at room temperature on a Phenomenex Aqua C18 reversed-phase column (150×4.6 mm). The mobile phase was formed by increasing, then decreasing the acetonitrile concentration in 1% acetic acid over 20 min by mixing two solutions: acetonitrile-water-acetic acid (10 : 90 : 1, v v^−1) and acetonitrile-water-acetic acid (80 : 20 : 1 v v^−1) and delivered at a flow rate of 1 ml min^−1. Compounds were detected at 324 nm.

CCRF-CEM = assay: NCI in vitro cytotoxicity assay (SRB), CCRF-CEM; type: cell-based; conditions: Homo sapiens, 48 h exposure, sulforhodamine B assay, mean graph, read-out: Log10 GI50 (CCRF-CEM) (converted)
Protocol: (§1) Cell culture and drug application procedures have been described previously ([Boyd and Paull, 1995]). Briefly, cell lines were inoculated into a series of 96-well microtiter plates, with varied seeding densities depending on growth characteristics of each cell line. Following a 24 h drug free incubation, test agents were added at five 10-fold dilutions with a maximum concentration of 100 μM. Cellular protein levels were determined after 48 h drug exposure by sulphorhodamine B colorimetry.

EKVX = assay: NCI in vitro cytotoxicity assay (SRB), EKVX; type: cell-based; conditions: Homo sapiens, 48 h exposure, sulforhodamine B assay, mean graph, read-out: Log10 GI50 (EKVX) (converted)
Protocol: as §1

MDA-N = assay: NCI in vitro cytotoxicity assay (SRB), MDA-N; type: cell-based; conditions: Homo sapiens, 48 h exposure, sulforhodamine B assay, mean graph, read-out: Log10 GI50 (MDA-N) (converted)
Protocol: as §1

[1] = tested on: CYP1A1 protein expression in IGROV-1 cells; assay: Western blot of CYP1A1 protein, IGROV-1 lysates; type: cell-based, human; conditions: 10 nM to 10 μM, 24 h, result not shown
Protocol: Whole cell lysates were prepared for examination of CYP1A1 protein expression from untreated MCF-7, IGROV-1 and HCT 116 cultures and following exposure of cells to compounds 1, 2, 2a, 2b, 3, 3a, 3b, 4, 4a and 4b. Following protein determination (n=3, [Bradford, 1976]) and addition of sample buffer, samples were boiled at 95°C for 5 min and solubilised proteins (50 μg) were separated by sodium dodecyl sulphate (SDS) polyacrylamide gel (10%) electrophoresis. Proteins were electroblotted to polyvinylidene difluoride (PVDF) membranes and probed for CYP1A1 protein with polyclonal antiserum specific for human CYP1A1/1A2 (Gentest Corporation). Secondary antibody was conjugated to alkaline phosphatase, and CYP1A1 was detected following brief (<10 min) incubation with bromochloroindolyl phosphate and nitro-blue tetrazolium in alkaline phosphatase buffer. Molecular weight markers and a positive control of recombinant CYP1A1 (Gentest Corporation), included in all blots, confirmed detection of 52 kDa CYP1A1 protein.

RPMI-8226 = assay: NCI in vitro cytotoxicity assay (SRB), RPMI-8226; type: cell-based; conditions: Homo sapiens, 48 h exposure, sulforhodamine B assay, mean graph, read-out: Log10 GI50 (RPMI-8226) (converted)
Protocol: as §1

CYP1A1 protein expression (Western blot) [1]	Structure (SMILES)	Biotransformation products of liberated parent amine in media (MCF-7 cells)	GI50 (CCRF-CEM)	GI50 (EKVX)	GI50 (MDA-N)	GI50 (RPMI-8226)
	Cc1cc(-c2nc3cc(F)ccc3s2)ccc1N [Compound 2, 2-(4-Amino-3-methylphenyl)-5-fluorobenzothiazole]	No biotransformation products could be detected	1.23 µM	1.41 µM	> 100 µM	
clearly observed	Cc1cc(-c2nc3cc(F)ccc3s2)ccc1NC(=O)[C@@H](N)CCCCN [Compound 2b]					2.45 µM
